Experiment [1] deals with T1, mouse ENT-1 transporter (Mus musculus, UniProt Q9JIM1).
T1 construct: expressed in transfected cells
T1 sequence (Q9JIM1 1-460): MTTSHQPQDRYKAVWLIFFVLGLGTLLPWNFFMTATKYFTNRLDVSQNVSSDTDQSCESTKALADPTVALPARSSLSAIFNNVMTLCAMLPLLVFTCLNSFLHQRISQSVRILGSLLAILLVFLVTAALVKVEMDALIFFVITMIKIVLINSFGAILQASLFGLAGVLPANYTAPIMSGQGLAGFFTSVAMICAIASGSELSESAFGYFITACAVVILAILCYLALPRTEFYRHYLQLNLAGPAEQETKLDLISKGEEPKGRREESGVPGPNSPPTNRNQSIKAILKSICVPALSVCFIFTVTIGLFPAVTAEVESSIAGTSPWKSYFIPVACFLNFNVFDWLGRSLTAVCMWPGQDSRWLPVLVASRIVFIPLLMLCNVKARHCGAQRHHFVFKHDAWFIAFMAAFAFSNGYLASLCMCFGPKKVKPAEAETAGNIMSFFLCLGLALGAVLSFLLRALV
As to the kind of experiment: Measure of adenosine transport activity (ENT1 adenosine uptake inhibition). It counts as cell-based. As to conditions: stable cells expressing mouse ENT-1, [2,8-3H]-adenosine 6 nM, 20 min. The gist of the method:
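Stable mouse ENT-1 cells, 60,000/well, washed into pH 7.4 Hepes-Tris uptake buffer and incubated at RT with compound (1% DMSO final) for 20 min with shaking. Non-specific uptake defined with 10 μM NBTI; cell-associated radioactivity counted by scintillation after ice-cold washes.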

The test system of experiment [2] is L-687,414-induced hyperlocomotion. As to the kind of experiment: L-687,414-induced hyperlocomotion. It counts as in vivo, mouse. The conditions noted are these: Dose ip 30 mg/kg, mice, 50 mg/kg s.c. L-687,414; for inhibition in vivo at 30 mg/kg: Mus musculus. As to the method:
The described compounds of formula I reduce L-687,414-induced hyperlocomotion. This was assessed by using a computerized Digiscan 16 Animal Activity Monitoring System (Omnitech Electronics, Columbus, Ohio) to quantify locomotor activity. Animals were kept under a 12 h light/dark cycle and experiments were performed during the light period. Each activity monitoring chamber consisted of a Plexiglas box (41×41×28 cm; W×L×H) with sawdust bedding on the floor surrounded by invisible horizontal and vertical infrared sensor beams. The test boxes were divided by a Plexiglas cross providing each mouse with 20×20 cm of moving space. Cages were connected to a Digiscan Analyzer linked to a computer that constantly collected the beam status information. Records of photocell beam interruptions for individual animals were taken every 5 min over the duration of the experimental session and the sum of the first 6 periods was used as the final parameter. At least 8 mice were used in each treatment group. Compounds were administered either p.o. 15 min before a s.c. injection of 50 mg/kg of L-687,414, or i.p. at the same time as a s.c. injection of 50 mg/kg of L-687,414. Mice were then transferred from their home cage to the recording chambers for a 15-min habituation phase allowing free exploration of the new environment. Horizontal activity was then recorded for a 30-min time period. The % inhibition of L-687,414-induced hyperlocomotion was calculated according to the equation:
((Veh+L-687,414 horizontal activity−drug+L-687,414 horizontal activity)/Veh+L-687,414 horizontal activity)×100
ID50 values, defined as doses of each compound producing 50% inhibition of L-687,414-induced hyperlocomotion, were calculated by linear regression analysis of a dose-response data using an Excel-based computer-fitting program.
As data was not presupposed to be normally distributed, groups treated with test compounds were statistically compared with the control (vehicle-treated) group using one-tailed Mann Whitney U tests. In statistics, the Mann-Whitney U test (also called the Mann-Whitney-Wilcoxon (MWW) or Wilcoxon rank-sum test) is a non-parametric statistical hypothesis test for assessing whether one of two samples of independent observations tends to have larger values than the other. It is one of the most well-known non-parametric significance tests. […] P values given in table 1 are one-tailed since only decreases in locomotion were expected and tested for (Mann, H. B., Whitney, D. R. (1947), “On a Test of Whether one of Two Random Variables is Stochastically Larger than the Other”, Annals of Mathematical Statistics, 18 (1), 50-60).

On to `Cc1cc(N2C(=O)C(C)(C)c3ccc(-c4cnc(C)nc4)cc32)sn1` [Example 124, 3,3-dimethyl-1-(3-methylisothiazol-5-yl)-6-(2-methylpyrimidin-5-yl)indolin-2-one], for which, in experiment [1], the half-inhibitory concentration (IC50) worked out at 226 nM. Besides, testing at 30 mg/kg in experiment [2] gave an inhibition in vivo of 53.3%.
Taken in the same sequence, the figures for `Cc1ncc(-c2ccc3c(c2)N(c2ccnc(F)c2)C(=O)C3(C)C)cn1` [Example 45, 1-(2-Fluoropyridin-4-yl)-3,3-dimethyl-6-(2-methylpyrimidin-5-yl)indolin-2-one] were 1000 nM and 80.5%.
The molecule `Cc1ncc(-c2ccc3c(c2)N(c2ncn(C)n2)C(=O)C3(C)C)cn1` [Example 82, 3,3-dimethyl-1-(1-methyl-1H-1,2,4-triazol-3-yl)-6-(2-methylpyrimidin-5-yl)indolin-2-one] had an inhibition in vivo at 30 mg/kg in experiment [2] of 89.6%.
In turn, “3,3-dimethyl-1,6-bis(5-methylpyrazin-2-yl)indolin-2-one [Example 91]” had an IC50 in experiment [1] of 1820 nM. For the same molecule, in experiment [2], the “L-687,414-induced hyperlocomotion Inhibition, ip [%]” value came out at 73.7%.
`CC(C)c1cn(-c2ccc3c(c2)N(c2ccn(C)n2)C(=O)C3(C)C)cn1` [Example 37, 6-(4-Isopropylimidazol-1-yl)-3,3-dimethyl-1-(1-methylpyrazol-3-yl)indolin-2-one] returned an IC50 in experiment [1] of 6750 nM. This molecule registered an inhibition in vivo at 30 mg/kg in experiment [2] of 73.8%.
For `Cc1ncc(-c2ccc3c(c2)N(c2cnc(C4CC4)cn2)C(=O)C3(C)C)cn1` [Example 95, 1-(5-cyclopropylpyrazin-2-yl)-3,3-dimethyl-6-(2-methylpyrimidin-5-yl)indolin-2-one] the same measures were 47 nM and 76.9%.
For `Cc1ncc(-c2ccc3c(c2)N(c2ncc(Cl)cn2)C(=O)C3(C)C)cn1` [Example 113, 1-(5-chloropyrimidin-2-yl)-3,3-dimethyl-6-(2-methylpyrimidin-5-yl)indolin-2-one] the same measures were 203 nM and 91.1%.
In the case of `Cc1cc(-c2cc3c(cn2)C(C)(C)C(=O)N3c2cnn(C)c2)ccn1` [Example 110, 3,3-dimethyl-1-(1-methyl-1H-pyrazol-4-yl)-6-(2-methylpyridin-4-yl)-1H-pyrrolo[3,2-c]pyridin-2(3H)-one], the inhibition in vivo at 30 mg/kg in experiment [2] is 58.5%.
`Cc1ncc(-c2ccc3c(c2)N(c2ccn(C)n2)C(=O)C3(C)C)cn1` [Example 4, 3,3-Dimethyl-1-(1-methyl-1H-pyrazol-3-yl)-6-(2-methylpyrimidin-5-yl)indolin-2-one] displayed an IC50 in experiment [1] of 951 nM. Further, in experiment [2], at 30 mg/kg the inhibition in vivo was 93.4%.
For the molecule `Cc1ccc(N2C(=O)C(C)(C)c3ccc(-c4nnc(C)o4)cc32)cn1` [Example 34, 3,3-Dimethyl-6-(5-methyl-1,3,4-oxadiazol-2-yl)-1-(6-methyl-3-pyridyl)indolin-2-one], in experiment [2], the inhibition in vivo at 30 mg/kg worked out at 59.7%.
`Cc1ncc(-c2ccc3c(c2)N(c2cnccn2)C(=O)C3(C)C)cn1` [Example 77, 3,3-dimethyl-6-(2-methylpyrimidin-5-yl)-1-(pyrazin-2-yl)indolin-2-one] yielded an IC50 in experiment [1] of 2410 nM. This molecule also came in with an inhibition in vivo at 30 mg/kg in experiment [2] of 92.6%.
Turning to “1-(2-cyclopropylpyrimidin-5-yl)-3,3-dimethyl-6-(2-methylpyrimidin-5-yl)indolin-2-one [Example 116]”, the IC50 in experiment [1] is 230 nM. In experiment [2], the “L-687,414-induced hyperlocomotion Inhibition, ip [%]” value is 92.8%.
On to `Cc1ncc(-c2cc3c(cn2)C(C)(C)C(=O)N3c2ccn(C)n2)cn1` [Example 16, 3,3-Dimethyl-1-(1-methyl-1H-pyrazol-3-yl)-6-(2-methylpyrimidin-5-yl)-1H-pyrrolo[3,2-c]pyridin-2(3H)-one], for which, in experiment [2], the inhibition in vivo at 30 mg/kg stood at 78.3%.
`Cc1cc(N2C(=O)C(C)(C)c3ccc(-n4cnc(C)c4)cc32)ccn1` [Example 22, 3,3-Dimethyl-6-(4-methylimidazol-1-yl)-1-(2-methyl-4-pyridyl)indolin-2-one] showed an inhibition in vivo at 30 mg/kg in experiment [2] of 63.8%.
Turning to `Cc1ncc(-c2ccc3c(c2)N(c2cnnc(Cl)c2)C(=O)C3(C)C)cn1` [Example 126, 1-(6-chloropyridazin-4-yl)-3,3-dimethyl-6-(2-methylpyrimidin-5-yl)indolin-2-one], the IC50 in experiment [1] is 2210 nM. In experiment [2], this molecule gave an inhibition in vivo at 30 mg/kg of 74.7%.
Taken in the same sequence, the figures for `Cc1ncc(-c2ccc3c(c2)N(c2nccnc2C)C(=O)C3(C)C)cn1` [Example 127, 3,3-dimethyl-1-(3-methylpyrazin-2-yl)-6-(2-methylpyrimidin-5-yl)indolin-2-one] were 7730 nM and 72.8%.
For `Cc1ncc(-c2ccc3c(c2)N(c2ncc(C)s2)C(=O)C3(C)C)cn1` [Example 125, 3,3-dimethyl-6-(2-methylpyrimidin-5-yl)-1-(5-methylthiazol-2-yl)indolin-2-one] the same measures were 132 nM and 52%.
The molecule `Cc1ncc(-c2ccc3c(c2)N(c2ccncn2)C(=O)C3(C)C)cn1` [Example 93, 3,3-dimethyl-6-(2-methylpyrimidin-5-yl)-1-(pyrimidin-4-yl)indolin-2-one] registered an inhibition in vivo at 30 mg/kg in experiment [2] of 92.4%.
`Cc1cc(-c2cc3c(cn2)C(C)(C)C(=O)N3c2cn(C)cn2)ccn1` [Example 111, 3,3-dimethyl-1-(1-methyl-1H-imidazol-4-yl)-6-(2-methylpyridin-4-yl)-1H-pyrrolo[3,2-c]pyridin-2(3H)-one] displayed an inhibition in vivo at 30 mg/kg in experiment [2] of 51%.
In turn, `Cc1ncc(-c2ccc3c(c2)N(c2nc(C)n(C)n2)C(=O)C3(C)C)cn1` [Example 78, 1-(1,5-dimethyl-1H-1,2,4-triazol-3-yl)-3,3-dimethyl-6-(2-methylpyrimidin-5-yl)indolin-2-one] showed an inhibition in vivo at 30 mg/kg in experiment [2] of 89.9%.
On the same count and under the same terms, in the case of `Cc1ncc(-c2ccc3c(c2)N(c2ccn(C)n2)C(=O)C3(C)C)o1` [Example 49, 3,3-Dimethyl-6-(2-methyloxazol-5-yl)-1-(1-methylpyrazol-3-yl)indolin-2-one] it was 47.1%.
For the molecule `Cc1cncc(-c2ccc3c(c2)N(c2cncc(C)n2)C(=O)C3(C)C)c1` [Example 145, 3,3-dimethyl-1-(6-methylpyrazin-2-yl)-6-(5-methyl-3-pyridyl)indolin-2-one], in experiment [1], half-maximal inhibition (IC50) required 337 nM.
As to `Cc1ncc(-c2ccc3c(c2)N(c2cncc(C#N)c2)C(=O)C3(C)C)cn1` [Example 143, 5-(3,3-dimethyl-6-(2-methylpyrimidin-5-yl)-2-oxoindolin-1-yl)nicotinonitrile], the IC50 in experiment [1] stood at 70 nM.
Still for that read-out and setting: the same measure for `Cc1ncc(-c2ccc3c(c2)N(c2cncc(CO)c2)C(=O)C3(C)C)cn1` [Example 153, 1-(5-(hydroxymethyl)pyridin-3-yl)-3,3-dimethyl-6-(2-methylpyrimidin-5-yl)indolin-2-one]: 291 nM; for `Cc1cnc(-c2ccc3c(c2)N(c2cnc(C)nc2)C(=O)C3(C)C)cn1` [Example 133, 3,3-dimethyl-6-(5-methylpyrazin-2-yl)-1-(2-methylpyrimidin-5-yl)indolin-2-one]: 4780 nM.
Take `Cc1cc(-c2cc3c(cn2)C(C)(C)C(=O)N3c2ccc(C)nn2)ccn1` [Example 109, 3,3-dimethyl-1-(6-methylpyridazin-3-yl)-6-(2-methylpyridin-4-yl)-1H-pyrrolo[3,2-c]pyridin-2(3H)-one]: the inhibition in vivo at 30 mg/kg in experiment [2] came to 51.3%.
On to `Cc1cc(N2C(=O)C(C)(C)c3ccc(-n4cnc(C5CC5)c4)cc32)ccn1` [Example 21, 6-(4-Cyclopropylimidazol-1-yl)-3,3-dimethyl-1-(2-methyl-4-pyridyl)indolin-2-one], for which the IC50 in experiment [1] is 4020 nM.

The term IC50 denotes the midpoint of a concentration-inhibition curve. High values mean weaker potency, low ones greater potency. The term inhibition in vivo denotes the share of the control response that was lost under treatment.

For the origin of these results see patent US20230391778A1, “INDOLIN-2-ONE OR PYRROLO -PYRIDIN -2 -ONE DERIVATIVES” (Hoffmann-La Roche Inc., priority 2014, published 2023).
